Key:
[1] = system: anti-fluorescein scFv on CAR T cells; experiment: Competitive binding assay against FITC-Alexa647 on CAR T cells; conditions: 1 μM competing ligand versus FITC-Alexa647 10 nM
Protocol: To examine the ability of bridge molecules to bind anti-fluorescein scFv on CAR T cells, a competitive binding assay was developed. Measurement of the fluorescein signal from CAR T cell bound bridges could not be used due to the overlap of its fluorescence with that of the GFP expressing CAR T cells. For this purpose, FITC-Alexa647 (10 nM) was allowed to bind anti-fluorescein CAR T cells in the absence or presence of excess (1 μM) competing ligand (i.e. FITC-folate, FITC-DUPA, FITC-CA9) for 1 h at room temperature. After incubation, anti-fluorescein CAR T cells were washed 3× with PBS to remove unbounded FITC-Alexa647, and the washed cells were analyzed for Alexa647 fluorescence by flow cytometry.
Fluorescein-folate (FITC-folate) and fluorescein-PSMA (FITC-DUPA) were synthesized as previously described. To examine the ability of these bridge molecules to bind anti-fluorescein scFv on CAR T cells, a competitive binding assay had to be developed, because measurement of the fluorescein signal from CAR T cell bound bridge could not be used due to the overlap of its fluorescence with that of the GFP expressing CAR T cells. For this purpose, FITC-Alexa647 (10 nM) was allowed to bind anti-fluorescein CAR T cells in the absence or presence of excess (1 μM) competing ligand (i.e. FITC-folate) for 1 h at room temperature. After incubation, anti-fluorescein CAR T cells were washed 3× with PBS to remove unbounded FITC-Alexa647, and the washed cells were analyzed for Alexa647 fluorescence by flow cytometry. For analysis of FITC-folate to binding to folate receptor, FR positive KB cells were incubated with FITC-folate (100 nM) in the absence or presence of excess (10 μM) free folate (i.e. as a competitive ligand). After washing samples with PBS (3 times), samples were analyzed by flow cytometry for fluorescein-folate binding.

[2] = system: PSMA+ MDA-MB-231 and CA9+ MDA-MB-231; experiment: Two tumors treated with cocktail of bridge molecules in vivo (Example 42); parameters: species or system NSG mice; conditions: only one of the bridges infused
Source text: In order to evaluate whether a cocktail of bridge molecules can eliminate two tumors expressing orthogonal antigens, we established two different tumor models. As a first tumor model, each of PSMA+ MDA-MB-231 and CA9+ MDA-MB-231 were implanted into NSG mice at two different locations (i.e. right flank: CA9+ MDA-MB-231, left flank: PSMA+ MDA-MB-231). For the second tumor model, PSMA+ MDA-MB-231 and CA9+ MDA-MB-231 were pre-mixed at a 1:1 ratio and implanted at one location.
PSMA+ MDA-MB-231 and CA9+ MDA-MB-231 were implanted into NSG mice (Jackson Laboratory, ME) either at two different locations (i.e. right flank: PSMA+ MDA-MB-231, left flank: CA9+ MDA-MB-231) or one location after two tumor cells were pre-mixed (i.e. 50% of PSMA+ MDA-MB-231 and 50% of CA9+ MDA-MB-231). When tumors reached ˜100 mm3 in size, anti-fluorescein CAR T cells (8×10^6) were injected plus FITC-DUPA, FITC-CA9 or both. Tumors were measured every other day with calipers, and tumor volume was calculated according to the equation: Tumor volume=½(L×W2) where L is the longest axis of the tumor and W is the axis perpendicular to L. Results are shown in FIGS. 49A and 49B.

| Compound | binding to CAR-expressing T cells [1] | growth of tumor expressing unmatched antigen [2] |
| --- | --- | --- |
| O=C(O)CC[C@H](NC(=O)N[C@@H](CCC(=O)NCCCCCCCC(=O)N[C@@H](Cc1ccccc1)C(=O)N[C@@H](Cc1ccccc1)C(=O)NCCNC(=S)Nc1ccc(-c2c3ccc(=O)cc-3oc3cc(O)ccc23)c(C(=O)O)c1)C(=O)O)C(=O)O [FITC-DUPA] | able to bind to the CAR-expressing T cells | continuously grew |
| FITC-PEG2-CA9 [FITC-CA9] | able to bind to the CAR-expressing T cells | continuously grew |

Source: patent publication US11759480B2, “Compositions and methods for CAR T cell therapy” (ENDOCYTE, INC., priority 2017, dated 2023)
